Measured values published in US20240366571A1, “MODULATORS OF SK4 POTASSIUM CHANNEL AND USES THEREOF” (Ramot at Tel-Aviv University Ltd., priority 2022, published 2024).
Entries after “also recorded” stand apart in the source; their conditions may differ.

What follows are molecules tested against T1, human SK4 (Homo sapiens, UniProt O15554) (assay: Whole-cell patch-clamp of WT SK4 K+ currents in transfected CHO cells). Conditions: 20 μM, whole-cell.
T1 construct: expressed in transfected cells; host or cells: CHO cells
Type: cell-based
Procedure: Constructs: For CHO cell transfection, the following were cloned: human SK1, rat SK2, human SK3, and rat calmodulin into the pcDNA3 vector, human SK4 into pEGFP-C1 vector, and PIP4,5-kinase into an IRES-dsRed plasmid. The mutations were introduced using the PCR-based QuikChange™ site-directed mutagenesis (Stratagene®) and were verified by full sequencing of the entire plasmid vector.
Cell Culture and Transfection: Chinese hamster ovary (CHO) cells were grown in Dulbecco's modified Eagle's medium supplemented with 2 millimolar (mM) glutamine, 10% fetal calf serum, and antibiotics. In brief, 40,000 cells seeded on poly-L-lysine-coated glass coverslips (13 millimeter (mm) in diameter) in a 24-multiwell plate were transfected with 0.5 microgram (μg) pEGFP-SK4/0.5 μg mutant SK4, 1.2 μg dsRed-PIP4,5-kinase or with 1 μg SK1/SK2/SK3 together with pIRES-CD8 (0.3 μg) as a marker for transfection. Transfection was performed using TransIT-LT1 Transfection Reagent (Mirus Bio) according to the manufacturer's protocol. For electrophysiology, transfected cells were visualized approximately 40 hours after transfection with a Zeiss Axiovert 35 inverted florescence microscope.
Whole-cell patch-clamp recording: Voltage-clamp recordings were performed using the whole-cell configuration of the patch-clamp technique. Signals were amplified using an […] patch-clamp amplifier (Molecular Devices), sampled at 5 kHz and filtered at 2.4 kHz via a four pole Bessel low pass filter. Data were acquired using pClamp™ 10.5 software in conjunction with an Axon™ DigiData® 1440A interface (Molecular Devices). The patch pipettes were pulled from borosilicate glass (Harvard Apparatus) with a resistance of 3-5 megaohms (MΩ). The intracellular pipette solution contained 130 mM KCl, 5 mM EGTA, 10 mM HEPES, pH 7.3 (adjusted with KOH), and CaCl2 calculated for a final concentration of 1 μM free-Ca^2+, by MAXCHELATOR (WEBMAXC STANDARD) software, with sucrose added to adjust osmolarity to 290 mosM. The external solution (310 mosM) contained 140 mM NaCl, 4 mM KCl, 1.8 mM CaCl2, 1.2 mM MgCl2, 11 mM glucose, and 5.5 mM HEPES adjusted with NaOH to pH 7.3. CHO cells were held at −90 millivolt (mV) and SK4 K^+ currents were activated using a voltage ramp protocol from −100 mV to +60 mV for 150 milliseconds. Electrophysiological data analysis was performed using the Clampfit program (pClamp™ 10.5; Molecular Devices).
Some of the compounds were tested by comparing trace of WT SK4 channel currents in the absence and presence of 20 μM of the tested compound.

Row | SMILES | inhibition of WT SK4 currents
1 | CCCCCCCn1c(=O)[nH]c2ccccc21 [BA6B, 1-heptyl-1,3-dihydro-2H-benzo[d]imidazol-2-one] | about 25%

Same assay, conditions: CHO, 20 μM, whole-cell

Row | SMILES | inhibition at 20 µM [%]
2 | CCCCCCCn1c(=O)[nH]c2ccccc21 [BA6B, 1-heptyl-1,3-dihydro-2H-benzo[d]imidazol-2-one] | 25

Same assay, conditions: WT SK4 currents in absence and presence of 20 μM compound

Row | SMILES | SK4 K+ channel modulating activity
3 | CCCCCCCCCCn1c(=O)n(CCCCCCCCCC)c2ccccc21 [BA8A, 1,3-didecyl-1,3-dihydro-2H-benzo[d]imidazol-2-one] | Inactive
4 | CCCCCCCn1c(=O)n(CCCCCCC)c2cc(C)ccc21 [BA29, 1,3-diheptyl-5-methyl-1,3-dihydro-2H-benzo[d]imidazol-2-one] | Inactive
5 | CCCCCCCCn1c(=O)n(CCCCCCCC)c2ccccc21 [BA7A, 1,3-dioctyl-1,3-dihydro-2H-benzo[d]imidazol-2-one] | Inactive
6 | CCCCCCn1c(=O)n(CCCCCC)c2cc(C)ccc21 [BA26, 1,3-dihexyl-5-methyl-1,3-dihydro-2H-benzo[d]imidazol-2-one] | Inactive
7 | Cc1ccc2[nH]c(=O)[nH]c2c1 [BA20, 5-methyl-1,3-dihydro-2H-benzo[d]imidazol-2-one] | Inactive
8 | CCCn1c(=O)[nH]c2ccccc21 [BA3B, 1-propyl-1,3-dihydro-2H-benzo[d]imidazol-2-one] | Inactive
9 | CCCCCCn1c(=O)[nH]c2ccccc21 [BA5B, 1-hexyl-1,3-dihydro-2H-benzo[d]imidazol-2-one] | inhibition; also recorded: Inhibitor
10 | CCCCCCCn1c(=O)n(CCCCCCC)c2cc(C)c(C)cc21 [BA56, 1,3-diheptyl-5,6-dimethyl-1,3-dihydro-2H-benzo[d]imidazol-2-one] | Inactive
11 | CCCCCCn1c(=O)n(CCCCCC)c2ccccc21 [BA5A, 1,3-dihexyl-1,3-dihydro-2H-benzo[d]imidazol-2-one] | Inactive
12 | CCCCCn1c(=O)n(CCCCC)c2ccccc21 [BA4A, 1,3-dipentyl-1,3-dihydro-2H-benzo[d]imidazol-2-one] | Inactive
13 | Cn1c(=O)n(C)c2ccccc21 [BA2A, 1,3-dimethyl-1,3-dihydro-2H-benzo[d]imidazol-2-one] | Inactive
14 | Cc1cc2[nH]c(=O)[nH]c2cc1C [BA50, 5,6-dimethyl-1,3-dihydro-2H-benzo[d]imidazol-2-one] | Inactive
15 | CCCn1c(=O)n(CCC)c2ccccc21 [BA3A, 1,3-dipropyl-1,3-dihydro-2H-benzo[d]imidazol-2-one] | Inactive
16 | Cc1cccc2[nH]c(=O)[nH]c12 [BA30, 4-methyl-1,3-dihydro-2H-benzo[d]imidazol-2-one] | Inactive
17 | CCCCCCCn1c(=O)n(CCCCCCC)c2cc(Cl)c(Cl)cc21 [BA46, 5,6-dichloro-1,3-diheptyl-1,3-dihydro-2H-benzo[d]imidazol-2-one] | Inactive
18 | CCCCCn1c(=O)n(CCCCC)c2cc(Cl)c(Cl)cc21 [BA42, 5,6-dichloro-1,3-dipentyl-1,3-dihydro-2H-benzo[d]imidazol-2-one] | Inactive
19 | Cc1ccc2c(c1)n(C)c(=O)n2C [BA2OC1c, 1,3,5-trimethyl-1,3-dihydro-2H-benzo[d]imidazol-2-one] | Inactive
20 | CCCCCCCCn1c(=O)[nH]c2ccccc21 [BA7B, 1-octyl-1,3-dihydro-2H-benzo[d]imidazol-2-one] | Inactive
21 | CCCCCCn1c(=O)n(CCCCCC)c2cc(F)ccc21 [BA66, 5-fluoro-1,3-dihexyl-1,3-dihydro-2H-benzo[d]imidazol-2-one] | Inactive
22 | CCCCCCCCCCCCn1c(=O)n(CCCCCCCCCCCC)c2ccccc21 [BA9A, 1,3-didodecyl-1,3-dihydro-2H-benzo[d]imidazol-2-one] | Inactive
23 | CCCCCCn1c(=O)n(CCCCCC)c2cc(Cl)c(Cl)cc21 [BA44, 5,6-dichloro-1,3-dihexyl-1,3-dihydro-2H-benzo[d]imidazol-2-one] | Inactive
24 | CCCCCCCCCCn1c(=O)[nH]c2ccccc21 [BA8B, 1-decyl-1,3-dihydro-2H-benzo[d]imidazol-2-one] | Inactive
25 | CCCCCn1c(=O)n(CCCCC)c2cc(C)ccc21 [BA23, 5-methyl-1,3-dipentyl-1,3-dihydro-2H-benzo[d]imidazol-2-one] | Inactive
26 | CCCCCCn1c(=O)n(CCCCCC)c2cc(C)c(C)cc21 [BA54, 1,3-dihexyl-5,6-dimethyl-1,3-dihydro-2H-benzo[d]imidazol-2-one] | Inactive
27 | CCCCCCCn1c(=O)n(CCCCCCC)c2ccccc21 [BA6A, 1,3-diheptyl-1,3-dihydro-2H-benzo[d]imidazol-2-one] | Inactive
28 | CCCCCCCn1c(=O)[nH]c2ccccc21 [BA6B, 1-heptyl-1,3-dihydro-2H-benzo[d]imidazol-2-one] | inhibited; also recorded: inhibition; also recorded: Inhibitor
29 | CCCCCn1c(=O)n(CCCCC)c2cc(F)ccc21 [BA63, 5-fluoro-1,3-dipentyl-1,3-dihydro-2H-benzo[d]imidazol-2-one] | Inactive
30 | CCCCCCCn1c(=O)n(CCCCCCC)c2cc(F)ccc21 [BA69, 5-fluoro-1,3-diheptyl-1,3-dihydro-2H-benzo[d]imidazol-2-one] | Inactive
31 | CCCn1c(=O)n(CCC)c2cc(C)ccc21 [BA2OC3c, 5-methyl-1,3-dipropyl-1,3-dihydro-2H-benzo[d]imidazol-2-one] | Inactive
32 | CCCCCn1c(=O)[nH]c2ccccc21 [BA4B, 1-pentyl-1,3-dihydro-2H-benzo[d]imidazol-2-one] | inhibition; also recorded: Inhibitor

Same assay, conditions: dose-dependent inhibition of WT SK4 channels; read-out: SK4 K+ channel modulating activity (IC50)

Row | SMILES | IC50 [µM]
33 | CCCCCCCn1c(=O)[nH]c2ccccc21 [BA6B, 1-heptyl-1,3-dihydro-2H-benzo[d]imidazol-2-one] | 50
